Data: US20040082557A1, “Methods for treating estrogen-dependent disorders” (priority 2001, published 2004)
One block for each molecule: values may come before it.

Columns and labels:
endometrial explants = test: Animal model of endometriosis in adult female rats (endometrium autotransplanted under the renal capsule); assay type: in vivo, rat; conditions: for volume of the explant: measured one week after the fourth weekly dose
[1] = system: pain symptoms in premenopausal women; test: Randomized, double-blind, parallel group clinical study of exemestane on pain symptoms in premenopausal women with endometriosis; assay type: in vivo, human; conditions: for ESS Composite Improvement from Visit 6 (Baseline): No / ESS Composite Improvement from Visit 6 (Baseline): Yes: % of total reported
[2] = 25 mg orally per day, Visit 10 (4 weeks of exemestane)
[3] = 25 mg orally per day, Visit 10 (4 weeks of exemestane), improvement = decrease of at least 1 point
[4] = 25 mg orally per day, Visit 14 (8 weeks of exemestane)
[5] = 25 mg orally per day, Visit 18 (follow-up)
[6] = 100 mg orally per day, Visit 10 (4 weeks of exemestane)
[7] = 100 mg orally per day, Visit 10 (4 weeks of exemestane), improvement = decrease of at least 1 point
[8] = 100 mg orally per day, Visit 14 (8 weeks of exemestane)
[9] = 100 mg orally per day, Visit 18 (follow-up)
[10] = either treatment group (25 or 100 mg/day), over the study period

SMILES: CC(C)C[C@H](NC(=O)[C@@H](Cc1c[nH]c2ccccc12)NC(=O)[C@H](Cc1ccc(O)cc1)NC(=O)[C@H](CO)NC(=O)[C@H](Cc1c[nH]c2ccccc12)NC(=O)[C@H](Cc1c[nH]cn1)NC(=O)[C@@H]1CCC(=O)N1)C(=O)N[C@@H](CCCNC(=N)N)C(=O)N1CCC[C@H]1C(=O)NCC(N)=O [triptorelin]
- volume of the explant (endometrial explants; triptorelin alone, subcutaneously once weekly for 4 weeks): dose-related decrease in the volume of the explant

- hematology, plasma chemistry or urinalysis laboratory assays [1, 10]: No noteworthy changes
SMILES: C=C1C[C@@H]2[C@H](CC[C@]3(C)C(=O)CC[C@@H]23)[C@@]2(C)C=CC(=O)C=C12 [Exemestane, 6-methylenandrost-1,4-diene-3,17-dione]
- tolerability ([1]; 25 mg and 100 mg, 54 woman subjects who received at least one dose): well tolerated
- Dysmenorrhea: Improvement over Visit 6 (Baseline, Start of Treatment): No [1, 2]: 44.0%
- Dyspareunia: Improvement over Visit 6 (Baseline, Start of Treatment): No [1, 2]: 35.3%
- Pelvic Pain: Improvement over Visit 6 (Baseline, Start of Treatment): No [1, 2]: 44.0%
- ESS Scale, Composite Score, Change from Visit 6, Mean ([1]; 25 mg orally per day, Visit 10 (4 weeks of exemestane), 17 patients with 3 endpoints evaluated, Visit 6 mean 5.0588, SD 2.0917, within treatment p 0.002): −2.000
- ESS Composite Improvement from Visit 6 (Baseline): No [1, 2]: 56.0%
- ESS Composite Improvement from Visit 6 (Baseline): Yes ([1]; 25 mg orally per day, Visit 10 (4 weeks of exemestane), improvement = at least 3-point decrease (3 symptoms) or 2-point (2 symptoms)): 44.0%
- Dysmenorrhea: Improvement over Visit 6 (Baseline, Start of Treatment): Yes [1, 3]: 56.0%
- Dyspareunia: Improvement over Visit 6 (Baseline, Start of Treatment): Yes [1, 3]: 64.7%
- Pelvic Pain: Improvement over Visit 6 (Baseline, Start of Treatment): Yes [1, 3]: 56.0%
- Dysmenorrhea: Improvement over Visit 6 (Baseline, Start of Treatment): No [1, 4]: 41.7%
- Dysmenorrhea: Improvement over Visit 6 (Baseline, Start of Treatment): Yes [1, 4]: 58.3%
- Dyspareunia: Improvement over Visit 6 (Baseline, Start of Treatment): No [1, 4]: 31.6%
- Dyspareunia: Improvement over Visit 6 (Baseline, Start of Treatment): Yes [1, 4]: 68.4%
- Pelvic Pain: Improvement over Visit 6 (Baseline, Start of Treatment): No [1, 4]: 41.7%
- Pelvic Pain: Improvement over Visit 6 (Baseline, Start of Treatment): Yes [1, 4]: 58.3%
- ESS Scale, Composite Score, Change from Visit 6, Mean ([1]; 25 mg orally per day, Visit 14 (8 weeks of exemestane), 19 patients, Visit 6 mean 5.1579, SD 1.8257, within treatment p <0.001): −2.000
- ESS Composite Improvement from Visit 6 (Baseline): No [1, 4]: 66.7%
- ESS Composite Improvement from Visit 6 (Baseline): Yes [1, 4]: 33.3%
- Dysmenorrhea: Improvement over Visit 6 (Baseline, Start of Treatment): No [1, 5]: 64.0%
- Dysmenorrhea: Improvement over Visit 6 (Baseline, Start of Treatment): Yes [1, 5]: 36.0%
- Dyspareunia: Improvement over Visit 6 (Baseline, Start of Treatment): No [1, 5]: 29.4%
- Dyspareunia: Improvement over Visit 6 (Baseline, Start of Treatment): Yes [1, 5]: 70.6%
- Pelvic Pain: Improvement over Visit 6 (Baseline, Start of Treatment): No [1, 5]: 68.0%
- Pelvic Pain: Improvement over Visit 6 (Baseline, Start of Treatment): Yes [1, 5]: 32.0%
- ESS Scale, Composite Score, Change from Visit 6, Mean ([1]; 25 mg orally per day, Visit 18 (follow-up), 17 patients, Visit 6 mean 5.0588, SD 1.8028, within treatment p <0.001): −2.000
- ESS Composite Improvement from Visit 6 (Baseline): No [1, 5]: 84.0%
- ESS Composite Improvement from Visit 6 (Baseline): Yes [1, 5]: 16.0%
- Dyspareunia score, Change from Baseline, Mean ± SD ([1]; 25 mg, Visit 10 (4 weeks of exemestane), baseline 1.6 ± 0.7, N 17): −0.9 ± 0.8
- Pelvic Pain score, Change from Baseline, Mean ± SD ([1]; 25 mg, Visit 10 (4 weeks of exemestane), baseline 1.8 ± 0.5, N 25): −0.6 ± 0.9
- Dysmenorrhea score, Change from Baseline, Mean ± SD ([1]; 25 mg, Visit 10 (4 weeks of exemestane), baseline 2.0 ± 0.6, N 17): −0.9 ± 0.8
- Dyspareunia score, Change from Baseline, Mean ± SD ([1]; 25 mg, Visit 14 (8 weeks of exemestane), baseline 1.6 ± 0.7, N 19): −0.8 ± 0.6
- Pelvic Pain score, Change from Baseline, Mean ± SD ([1]; 25 mg, Visit 14 (8 weeks of exemestane), baseline 1.8 ± 0.5, N 24): −0.6 ± 0.9
- Dysmenorrhea score, Change from Baseline, Mean ± SD ([1]; 25 mg, Visit 14 (8 weeks of exemestane), baseline 2.0 ± 0.6, N 19): −0.8 ± 0.6
- Dysmenorrhea: Improvement over Visit 6 (Baseline, Start of Treatment): No [1, 6]: 38.5%
- Dyspareunia: Improvement over Visit 6 (Baseline, Start of Treatment): No [1, 6]: 38.9%
- Pelvic Pain: Improvement over Visit 6 (Baseline, Start of Treatment): No [1, 6]: 30.8%
- ESS Scale, Composite Score, Change from Visit 6, Mean ([1]; 100 mg orally per day, Visit 10 (4 weeks of exemestane), 18 patients, Visit 6 mean 5.9444, SD 2.0364, within treatment p <0.001): −2.5000
- ESS Composite Improvement from Visit 6 (Baseline): No [1, 6]: 46.2%
- ESS Composite Improvement from Visit 6 (Baseline): Yes ([1]; 100 mg orally per day, Visit 10 (4 weeks of exemestane), improvement = at least 3-point decrease (3 symptoms) or 2-point (2 symptoms)): 53.8%
- Dysmenorrhea: Improvement over Visit 6 (Baseline, Start of Treatment): Yes [1, 7]: 61.5%
- Dyspareunia: Improvement over Visit 6 (Baseline, Start of Treatment): Yes [1, 7]: 61.1%
- Pelvic Pain: Improvement over Visit 6 (Baseline, Start of Treatment): Yes [1, 7]: 69.2%
- Dysmenorrhea: Improvement over Visit 6 (Baseline, Start of Treatment): No [1, 8]: 39.1%
- Dysmenorrhea: Improvement over Visit 6 (Baseline, Start of Treatment): Yes [1, 8]: 60.9%
- Dyspareunia: Improvement over Visit 6 (Baseline, Start of Treatment): No [1, 8]: 47.1%
- Dyspareunia: Improvement over Visit 6 (Baseline, Start of Treatment): Yes [1, 8]: 52.9%
- Pelvic Pain: Improvement over Visit 6 (Baseline, Start of Treatment): No [1, 8]: 30.4%
- Pelvic Pain: Improvement over Visit 6 (Baseline, Start of Treatment): Yes [1, 8]: 69.6%
- ESS Scale, Composite Score, Change from Visit 6, Mean ([1]; 100 mg orally per day, Visit 14 (8 weeks of exemestane), 17 patients, Visit 6 mean 5.5882, SD 1.9059, within treatment p <0.001): −2.4118
- ESS Composite Improvement from Visit 6 (Baseline): No [1, 8]: 43.5%
- ESS Composite Improvement from Visit 6 (Baseline): Yes [1, 8]: 56.5%
- Dysmenorrhea: Improvement over Visit 6 (Baseline, Start of Treatment): No [1, 9]: 50.0%
- Dysmenorrhea: Improvement over Visit 6 (Baseline, Start of Treatment): Yes [1, 9]: 50.0%
- Dyspareunia: Improvement over Visit 6 (Baseline, Start of Treatment): No [1, 9]: 50.0%
- Dyspareunia: Improvement over Visit 6 (Baseline, Start of Treatment): Yes [1, 9]: 50.0%
- Pelvic Pain: Improvement over Visit 6 (Baseline, Start of Treatment): No [1, 9]: 31.8%
- Pelvic Pain: Improvement over Visit 6 (Baseline, Start of Treatment): Yes [1, 9]: 68.2%
- ESS Scale, Composite Score, Change from Visit 6, Mean ([1]; 100 mg orally per day, Visit 18 (follow-up), 14 patients, Visit 6 mean 5.5714, SD 1.7852, within treatment p 0.016): −1.4286
- ESS Composite Improvement from Visit 6 (Baseline): No [1, 9]: 50.0%
- ESS Composite Improvement from Visit 6 (Baseline): Yes [1, 9]: 50.0%
- Dyspareunia score, Change from Baseline, Mean ± SD ([1]; 100 mg, Visit 10 (4 weeks of exemestane), baseline 1.9 ± 1.0, N 18): −1.0 ± 1.3
- Pelvic Pain score, Change from Baseline, Mean ± SD ([1]; 100 mg, Visit 10 (4 weeks of exemestane), baseline 2.1 ± 0.5, N 26): −0.8 ± 0.7
- Dysmenorrhea score, Change from Baseline, Mean ± SD ([1]; 100 mg, Visit 10 (4 weeks of exemestane), baseline 2.1 ± 0.7, N 18): −1.0 ± 1.3
- Dyspareunia score, Change from Baseline, Mean ± SD ([1]; 100 mg, Visit 14 (8 weeks of exemestane), baseline 1.9 ± 1.0, N 17): −0.8 ± 0.8
- Pelvic Pain score, Change from Baseline, Mean ± SD ([1]; 100 mg, Visit 14 (8 weeks of exemestane), baseline 2.1 ± 0.5, N 23): −0.8 ± 0.8
- Dysmenorrhea score, Change from Baseline, Mean ± SD ([1]; 100 mg, Visit 14 (8 weeks of exemestane), baseline 2.1 ± 0.7, N 17): −0.8 ± 0.7
- endometriosis symptoms ([1]; 25 or 100 mg orally per day, 2 months): moderate improvement in endometriosis symptoms
- blood pressure [1, 10]: Neither blood pressure nor body weight changed significantly
- body weight [1, 10]: Neither blood pressure nor body weight changed significantly
- volume of the explant (endometrial explants; exemestane alone, intramuscularly once a week for 4 consecutive weeks): dose-related decrease in the volume of the explant
- effect on growth of the endometrial explants, combination (endometrial explants; exemestane in combination with triptorelin at marginally or intermediate effective doses, 4 weeks): additive or synergistic effect
